Data from patent US20250114582A1, “METHOD FOR EFFICIENT DRUG ADMINISTRATION ACROSS THE BLOOD-BRAIN BARRIER AND USES THEREOF” (Carthera, priority 2023, published 2025).
Values joined by “and” are separate entries in the source; they are usually repeats but may differ in a detail not shown here. Identical values can stand only once. “Also recorded” adds a separate entry of the source.

How the values were obtained:
[1] = plasma kinetics used for the model; cited from earlier work
[2] = dose-limiting toxicity, tolerability and safety of carboplatin delivered with concomitant LIPU/MB-based BBB opening; type: in vivo, human
Description: For the Phase 1 (escalation of the number of active emitters/beams), the main objective was to identify the Maximum Tolerated Dose (“MTD”) defined as the highest active-beams level at which ≤1 DLT occurred in a maximum of 6 patients by cohort. […]
(§1) The secondary endpoints included the frequency and severity of adverse events (incidence of adverse events summarized by system organ class and/or preferred term and severity) based on the CTCAE, version 5.0, the time to and localization of recurrence(s) on magnetic resonance imaging, feasibility of the procedure considering the time required for the sonication (from beginning of needle connection to the end of ultrasound emission and needle extraction) at the first 3 sonications of each patient, and the total time for SonoCloud 9 positioning using the SonoCloud 9 template. Six-month progression-free survival (6m-PFS), median progression-free survival (mPFS), and 1-year overall survival (1y-OS) and median OS (mOS) were also evaluated. In this trial, time to progression or to death was calculated from time of surgery/device implantation to time of events.
All patients were clinically assessed at least once a month (prior to the next cycle) and included standard laboratory blood analyses (complete blood counts, chemistry with liver and kidney function tests), and also a contrast-enhanced MRI within 2 days prior to sonication. Patients discontinued the study if tumor progression was identified according to the Response Assessment in Neuro-Oncology criteria (Wen et al., 2010, J. Clin. Oncol. 28:1963-1972). For patients continuing the study, subsequent MRI exam was to be performed immediately after LIPU/MB treatment.

[3] = system: recurrent Glioblastoma Multiforme (GBM); experiment: phase 1/2a clinical trial: carboplatin with LIPU/microbubble BBB opening (SonoCloud-9), clinical outcomes; type: in vivo, human
Experimental: A prospective, open-label, multi-center, single-arm, dose escalation, phase 1/2a clinical trial was conducted enrolling recurrent Glioblastoma Multiforme (“GBM”) patients at four clinical sites in France and two sites in the United States. All patients provided written informed consent in accordance with institutional guidelines. Approval was obtained from the ANSM (French National Health Agency) and from the US FDA (Food and Drug Administration). The study was conducted in accordance with good clinical practices. The study began in February 2019 and follow-up was completed in November 2022.
The trial was designed to evaluate the safety and efficacy of transient disruption of the blood-brain barrier by low intensity pulsed ultrasound (“LIPU”) with an implantable ultrasound device, i.e., the SonoCloud-9 implantable device (“SC9”; Carthera, Lyon, France). The trial first evaluated the Dose Limiting Toxicity (“DLT”) of escalating numbers of ultrasound beams (3, 6, and 9 beams) at constant acoustic pressure (1.03 MPa) using a 3+3 dose escalation design (cohorts A, B and C) and then confirmed the safety and efficacy of BBB opening in two expansion cohorts (cohorts C & D).
as §1
The SC9 device contains no internal energy source and is activated on demand by connecting the device to an external generator using a transdermal needle, as shown in FIG. 7A. Each sonication step consists of the generation of sequential pulses from each emitter (1 MHz, 25 ms pulse, 0.5 Hz, 270 seconds) in combination with the IV administration of the ultrasound resonator (microbubbles [MB], Definity®/Luminity® 10 μL/kg, Lantheus, N. Billerica, MA). The ultrasound resonator is injected as a 30-second bolus at the start of the ultrasound sonication procedure. Sonication was performed prior (within 60 minutes) to the carboplatin chemotherapy at cycles 1, 2 and 3 and no more than 30 minutes before the start of carboplatin therapy for the following cycles, for cohorts A, B, and C. For cohort D, the sonication was performed immediately after the completion of the carboplatin infusion. After completion of the six sonication cycles specified in the protocol or in the case of progression/premature discontinuation of the trial and prior to the end of study visit, the removal of the device could be performed unless considered as contra-indicated by the investigator or refused by the patient.
Standard carboplatin chemotherapy using any FDA/ANSM-approved, therapeutically equivalent carboplatin injectable drug product, with a target AUC of 4-6 mg/ml*min (AUC as per local practice and investigators judgement) was given according to the Calvert formula (Calvert et al., 1989, J. Clin. Oncol. 7:1748-1756). Cycles were to be repeated every 4 weeks provided the absolute neutrophil count had recovered to ≥1500 cells/mm^3 and the platelet count was at least 100,000 cells/mm^3. Subsequent dosages were adjusted for toxicity as needed per local practice.

[4] = system: recurrent Glioblastoma Multiforme (GBM); experiment: contrast enhancing tumor progression assessment on MRI in the clinical trial; type: in vivo, human; conditions: for tumor growth rate (median): hyperintense T1w volume in region targeted by the implant
Experimental: To evaluate the local effect of the treatment, an analysis was performed using the monthly pre-ultrasound and end-of-study MR images. The T1w contrast-enhancing tumor-related region segmented with a semi-automatic method (ITK Snap) (Yushkevich et al. 2006, Neuroimage 31:1116-1128). The total volume of this hyperintense region was evaluated at each treatment cycle in the whole brain, and in the region targeted by the implant, considering nine […] cylinders in front of the emitters. This region corresponded to 10×75 mm cylinders with an additional diffusion margin of 5 mm (Goldwirt et al., 2016, Cancer Chemother. Pharmacol. 77:211-216).
To further evaluate tumor progression likelihood as a function of distance to the region targeted by the emitters, the difference of this hyperintense volume between the last MRI and the first cycle was used as a progression mask. The distribution of the volume of this progression mask relative to the distance to the axes of the nine emitters was computed.

[5] = CTCAE Grade 3, N = 34, related to the investigational procedure
[6] = CTCAE all grade, N = 34, related to the investigational procedure
[7] = cohort C, carboplatin after US (N = 15)
[8] = cohort D, carboplatin before US (N = 12)
[9] = cohorts C + D (N = 27), 9 emitters activated

Q: For `CC(=O)O[C@H]1C(=O)[C@@]2(C)[C@H]([C@H](OC(=O)c3ccccc3)[C@]3(O)C[C@H](OC(=O)[C@H](O)[C@@H](NC(=O)c4ccccc4)c4ccccc4)C(C)=C1C3(C)C)[C@]1(OC(C)=O)CO[C@@H]1C[C@@H]2O` [paclitaxel], which alpha half-life [1] is on record?
A: ~30 min

Q: What about the beta half-life [1] of the same compound?
A: several hours

Q: For `N.N.O=C([O-])C1(C(=O)[O-])CCC1.[Pt+2]` [carboplatin], which “General disorders and administration site conditions” value [2, 5] is on record?
A: 1 (3%)

Q: And the Infections and infestations [2, 5]?
A: 2 (6%)

Q: What about the Nervous system disorders [2, 5] of the same compound?
A: 3 (9%)

Q: And the “Patients with Any Related TEAEs (Overall)” value [2, 5]?
A: 12 (35%)

Q: What about the “Skin and subcutaneous tissue disorders” value [2, 5] of the same compound?
A: 6 (18%)

Q: And the Anxiety [2, 6]?
A: 1 (3%)

Q: What about the Aphasia [2, 6] of the same compound?
A: 4 (12%)

Q: And the Balance disorder [2, 6]?
A: 1 (3%)

Q: And the Cerebrospinal fluid leakage [2, 6]?
A: 2 (6%)

Q: What about the Confusional state [2, 6] of the same compound?
A: 1 (3%)

Q: What about the Depression [2, 6] of the same compound?
A: 1 (3%)

Q: What about the Diplopia/Vision blurred [2, 6] of the same compound?
A: 6 (17%)

Q: And the Dizziness [2, 6]?
A: 8 (24%)

Q: And the Dysarthria [2, 6]?
A: 2 (6%)

Q: What about the “Ear and labyrinth disorders” value [2, 6] of the same compound?
A: 2 (6%)

Q: What about the Fatigue/Asthenia [2, 6] of the same compound?
A: 6 (18%)

Q: And the “General disorders and administration site conditions” value [2, 6]?
A: 8 (24%)

Q: What about the Headache [2, 6] of the same compound?
A: 7 (21%)

Q: What about the Hypoaesthesia [2, 6] of the same compound?
A: 1 (3%)

Q: What about the Implant site pain [2, 6] of the same compound?
A: 1 (3%)

Q: And the Infections and infestations [2, 6]?
A: 2 (6%)

Q: And the “Injury, poisoning and procedural complications” value [2, 6]?
A: 3 (9%)

Q: What about the Lacunar stroke [2, 6] of the same compound?
A: 1 (3%)

Q: What about the Language disorder [2, 6] of the same compound?
A: 1 (3%)

Q: And the Meningocele acquired [2, 6]?
A: 3 (9%)

Q: And the Monoparesis [2, 6]?
A: 1 (3%)

Q: And the Nervous system disorders [2, 6]?
A: 25 (74%)

Q: And the Pain of skin [2, 6]?
A: 19 (56%)

Q: What about the Paraesthesia [2, 6] of the same compound?
A: 3 (9%)

Q: And the “Patients with Any Related TEAEs (Overall)” value [2, 6]?
A: 33 (97%)

Q: And the Post procedural oedema [2, 6]?
A: 1 (3%)

Q: And the Presyncope [2, 6]?
A: 2 (6%)

Q: What about the Psychiatric disorders [2, 6] of the same compound?
A: 2 (6%)

Q: What about the Scar [2, 6] of the same compound?
A: 1 (3%)

Q: And the Seizure [2, 6]?
A: 2 (6%)

Q: What about the “Skin and subcutaneous tissue disorders” value [2, 6] of the same compound?
A: 19 (56%)

Q: What about the Subarachnoid haemorrhage [2, 6] of the same compound?
A: 1 (3%)

Q: What about the Vertigo [2, 6] of the same compound?
A: 2 (6%)

Q: And the “Wound infection/Postoperative wound infection” value [2, 6]?
A: 2 (6%)

Q: And the “grade 4 events” value ([2]; CTCAE, all implanted patients)?
A: No grade 4 events

Q: What about the “tolerability of device implantation and repeated BBB opening procedure” value ([2]; all patients) of the same compound?
A: well-tolerated

Q: And the “pattern of hematological and non-hematological toxicities secondary to carboplatin” value ([2]; e.g. bone marrow suppression, anemia, vomiting)?
A: as expected

Q: What about the “Dose Limiting Toxicity (DLT)” value ([2]; sonication plus carboplatin, 3, 6 and 9 beams) of the same compound?
A: No DLTs

Q: And the “1-yr OS” value [3, 7]?
A: 46.7% and 47%

Q: What about the “9-month OS” value [3, 7] of the same compound?
A: 67%

Q: What about the mOS [3, 7] of the same compound?
A: 11.8 months

Q: And the mPFS [3, 7]?
A: 2.5 months

Q: What about the “1-yr OS” value [3, 8] of the same compound?
A: 58.3% and 58%

Q: What about the “9-month OS” value [3, 8] of the same compound?
A: 75%

Q: What about the mOS [3, 8] of the same compound?
A: 14.0 months

Q: What about the mPFS [3, 8] of the same compound?
A: 3.1 months

Q: And the “1-yr OS” value [3, 9]?
A: 52%

Q: What about the “9-month OS” value [3, 9] of the same compound?
A: 70%

Q: What about the mOS [3, 9] of the same compound?
A: 12.4 months

Q: And the mPFS [3, 9]?
A: 2.7 months

Q: And the alpha half-life [1]?
A: ~60 min

Q: What about the beta half-life [1] of the same compound?
A: ~6 h

Q: What about the “tumor growth rate (median)” value ([4]; cohort C (carboplatin after sonication)) of the same compound?
A: 2.31 mL/month

Q: And the “evolution of the T1w enhancement outside the sonication field” value ([4]; cohort C vs cohort D, region targeted by the implant excluded (p=0.55))?
A: no significant difference

Q: What about the “tumor growth rate (median)” value ([4]; cohort D (carboplatin before sonication)) of the same compound?
A: 0.54 mL/month

Q: And the in-field tumor control ([4]; cohort D compared to cohort C)?
A: Better in-field tumor control

Q: And the “local tumor progression probability (% ROI volume covered with hyperintense tumor at end of study vs distance to emitter axis)” value ([4]; cohort D vs cohort C, up to 10 mm radius from emitter axes (significant up to 7.5 mm))?
A: less likelihood; also recorded: lower
